Converted amounts (≈) assume the structure as drawn.
How the values were obtained:
[1] = molecular target: histone deacetylase (HeLa nuclear extracts); assay: In vitro assay for inhibition of histone deacetylase; format: biochemical; conditions: [3H]acetylated histone H4 peptide substrate
Description: The in vitro assay for inhibition of histone deacetylase (see example C.1) measures the inhibition of HDAC enzymatic activity obtained with the compounds of formula (I).
HeLa nuclear extracts (supplier: Biomol) were incubated at 60 μg/ml with 2×10^−8 M of radiolabeled peptide substrate. As a substrate for measuring HDAC activity a synthetic peptide, i.e. the amino acids 14–21 of histone H4, was used. The substrate is biotinylated at the NH2-terminal part with a 6-aminohexanoic acid spacer, and is protected at the COOH-terminal part by an amide group and specifically [^3H]acetylated at lysine 16. The substrate, biotin-(6-aminohexanoic)Gly-Ala-([^3H]-acetyl-Lys-Arg-His-Arg-Lys-Val-NH2), was added in a buffer containing 25 mM Hepes, 1 M sucrose, 0.1 mg/ml BSA and 0.01% Triton X-100 at pH 7.4. After 30 min the deacetylation reaction was terminated by the addition of HCl and acetic acid. (final concentration 0.035 mM and 3.8 mM respectively). After stopping the reaction, the free ^3H-acetate was extracted with ethylacetate. After mixing and centrifugation, the radioactivity in an aliquot of the upper (organic) phase was counted in a β-counter.
For each experiment, controls (containing HeLa nuclear extract and DMSO without compound), a blank incubation (containing DMSO but no HeLa nuclear extract or compound) and samples (containing compound dissolved in DMSO and HeLa nuclear extract) were run in parallel. In first instance, compounds were tested at a concentration of 10^−5M. […] In each test the blank value was substracted from both the control and the sample values. The control sample represented 100% of substrate deactylation. For each sample the radioactivity was expressed as a percentage of the mean value of the controls. […] Herein the effects of test compounds are expressed as pIC50 (the negative log value of the IC50-value).

[2] = Kinetic solubility in aqueous media (nephelometry); format: physicochemical; conditions: phosphate citrate buffer, pH 7.4, aqueous buffer, kinetic from dmso stock, phosphate citrate buffer pH 7.4, turbidity of three dilution steps; read-out: Solubility Score
Description: Kinetic solubility in aqueous media measures the ability of a compound to stay in aqueous solution upon dilution (see example C.3).
DMSO-stock solutions are diluted with a single aqueous buffer solvent in 3 consecutive steps. For every dilution turbidity is measured with a nephelometer.
In the first dilution step, 10 μl of a concentrated stock-solution of the active compound, solubilized in DMSO (5 mM), was added to 100 μl phosphate citrate buffer pH 7.4 and mixed. In the second dilution step, an aliquot (20 μl) of the first dilution step was further dispensed in 100 μl phosphate citrate buffer pH 7.4 and mixed. Finally, in the third dilution step, a sample (20 μl) of the second dilution step was further diluted in 100 μl phosphate citrate buffer pH 7.4 and mixed. All dilutions were performed in 96-well plates. Immediately after the last dilution step the turbidity of the three consecutive dilution steps were measured with a nephelometer. Dilution was done in triplicate for each compound to exclude occasional errors. Based on the turbidity measurements a ranking is performed into 3 classes. Compounds with high solubility obtained a score of 3 and for this compounds the first dilution is clear. Compounds with medium solubility obtained a score of 2. For these compounds the first dilution is unclear and the second dilution is clear. […] The solubility of 112 compounds was measured.

[3] = test system: A2780 ovarian carcinoma cells; assay: Antiproliferative activity on A2780 cells (MTT); format: cell-based, human; conditions: Homo sapiens, A2780, 96 h, four days of incubation, read-out: Cellular activity pIC50 (converted)
Description: Cellular activity of the compounds of formula (I) was determined on A2780 tumour cells using a colorimetric assay for cell toxicity or survival (Mosmann Tim, Journal of Immunological Methods 65: 55–63, 1983)(see example C.2).
All compounds tested were dissolved in DMSO and further dilutions were made in culture medium. Final DMSO concentrations never exceeded 0.1% (v/v) in cell proliferation assays. Controls contained A2780 cells and DMSO without compound and blanks contained DMSO but no cells. MTT was dissolved at 5 mg/ml in PBS. A glycine buffer comprised of 0.1 M glycine and 0.1 M NaCl buffered to pH 10.5 with NaOH (1 N) was prepared (all reagents were from Merck).
The human A2780 ovarian carcinoma cells (a kind gift from Dr. T. C. Hamilton [Fox Chase Cancer Centre, Pennsylvania, USA]) were cultured in RPMI 1640 medium supplemented with 2 mM L-glutamine, 50 μg/ml gentamicin and 10% fetal calf serum. Cells were routinely kept as monolayer cultures at 37° C. in a humidified 5% CO2 atmosphere. Cells were passaged once a week using a trypsin/EDTA solution at a split ratio of 1:40. All media and supplements were obtained from Life Technologies. Cells were free of mycoplasma contamination as determined using the Gen-Probe Mycoplasma Tissue Culture kit (supplier: BioMérieux).
Cells were seeded in NUNC™ 96-well culture plates (Supplier: Life Technologies) and allowed to adhere to the plastic overnight. Densities used for plating were 1500 cells per well in a total volume of 200 μl medium. After cell adhesion to the plates, medium was changed and drugs and/or solvents were added to a final volume of 200 μl. Following four days of incubation, medium was replaced by 200 μl fresh medium and cell density and viability was assessed using an MTT-based assay. To each well, 25 μl MTT solution was added and the cells were further incubated for 2 hours at 37° C. The medium was then carefully aspirated and the blue MTT-formazan product was solubilized by addition of 25 μl glycine buffer followed by 100 μl of DMSO. […] Within an experiment, the results for each experimental condition are the mean of 3 replicate wells. For initial screening purposes, compounds were tested at a single fixed concentration of 10^−6 M. For active compounds, the experiments were repeated to establish full concentration-response curves. For each experiment, controls (containing no drug) and a blank incubation (containing no cells or drugs) were run in parallel. The blank value was subtracted from all control and sample values. For each sample, the mean value for cell growth (in absorbance units) was expressed as a percentage of the mean value for cell growth of the control. […] Herein the effects of test compounds are expressed as pIC50 (the negative log value of the IC50-value).

Compound | Enzyme activity pIC50 [1] | solubility [2] [µM] | IC50 [3] [µM]
O=C(NO)c1cnc(N2CCN(S(=O)(=O)c3ccc(-c4ccc(CN5CCN(CCO)CC5)cc4)cc3)CC2)nc1 [Compound 166] | 7.969 | < 75.8 | 0.0614
O=C(NO)c1ccc(N2CCN(S(=O)(=O)c3ccc(Cl)c(Cl)c3)CC2)cc1 [Compound 80] | 5.961 | < 75.8 | 1.23
O=C(NO)c1ccc(N2CCN(S(=O)(=O)c3ccccc3C(F)(F)F)CC2)cc1 [Compound 74] | 5.841 | 75.8 to 454 (≈ 32.6 to 195 µg/mL) | 2.61
O=C(NO)c1cnc(N2CCN(S(=O)(=O)c3ccc(-c4ccccc4CN(CCO)CCO)cc3)CC2)nc1 [Compound 160] | 8.272 | 75.8 to 454 (≈ 42.2 to 253 µg/mL) | 0.278
CN(C)CCN(C)Cc1ccc(-c2ccc(S(=O)(=O)N3CCN(c4ncc(C(=O)NO)cn4)CC3)cc2)cc1 [Compound 164] | 8.308 | 75.8 to 454 (≈ 42 to 252 µg/mL) | 0.0483
O=C(NO)c1ccc(N2CCN(S(=O)(=O)c3cccc(F)c3)CC2)cc1 [Compound 61] | 6.255 | 75.8 to 454 (≈ 28.8 to 172 µg/mL) | 2.79
CN(C)S(=O)(=O)N1CCN(Cc2sccc2-c2ccc(S(=O)(=O)N3CCN(c4ncc(C(=O)NO)cn4)CC3)cc2)CC1 [Compound 147] | 6.765 | < 75.8 | 0.693
O=C(NO)c1cnc(N2CCN(S(=O)(=O)c3ccc(-c4ccccc4OCCN4CCCC4)cc3)CC2)nc1 [Compound 125] | 8.659 | 75.8 to 454 (≈ 41.9 to 251 µg/mL) | 0.0931
O=C(NO)c1ccc(CN2CCN(S(=O)(=O)c3ccc4ccccc4c3)CC2)cc1 [Compound 88] | 6.481 | > 454 | 2.84
O=C(NO)c1cnc(N2CCN(S(=O)(=O)c3ccc(-c4ccsc4CN4CCN(CCOCCO)CC4)cc3)CC2)nc1 [Compound 150] | 8.011 | 75.8 to 454 (≈ 47.9 to 287 µg/mL) | 0.164
O=C(NO)c1cnc(N2CCN(S(=O)(=O)c3ccc(-c4ccc(CN5CCN(CCOCCO)CC5)cc4)cc3)CC2)nc1 [Compound 165] | 7.947 | < 75.8 | 0.0556
CS(=O)(=O)c1ccccc1S(=O)(=O)N1CCN(c2ccc(C(=O)NO)cc2)CC1 [Compound 60] | 6.247 | > 454 | 4.53
Nc1ccccc1NC(=O)c1ccc(N2CCN(S(=O)(=O)c3ccc4ccccc4c3)CC2)cc1 [Compound 17] | <5 | < 75.8 | 0.764
Cc1c(C)c(S(=O)(=O)N2CCN(c3ccc(C(=O)NO)cc3)CC2)c(C)c2c1OC(C)(C)C2 [Compound 67] | 5.177 | < 75.8 | 0.855
O=C(NO)c1ccc(N2CCN(S(=O)(=O)c3ccc4ccccc4c3)CC2)cc1 [Compound 2] | 7.147 | < 75.8 | 1.94

Now from value to compound:

Enzyme activity pIC50 [1] | solubility [2] [µM] | IC50 [3] [µM] | Compound
6.621 | > 454 | 5.79 | O=C(NO)c1cnc(N2CCN(S(=O)(=O)N3CCOCC3)CC2)nc1 [Compound 14]
7.467 | > 454 | 1.11 | O=C(NO)c1cnc(N2CCN(S(=O)(=O)c3cccs3)CC2)nc1 [Compound 90]
6.494 | < 75.8 | 0.798 | CC(C)(C)c1ccc(-c2ccc(S(=O)(=O)N3CCN(c4ncc(C(=O)NO)cn4)CC3)cc2)cc1 [Compound 105]
8.228 | > 454 | 0.0962 | CN1CCN(Cc2ccccc2-c2ccc(S(=O)(=O)N3CCN(c4ncc(C(=O)NO)cn4)CC3)cc2)CC1 [Compound 157]
8.156 | > 454 | 0.164 | O=C(NO)c1cnc(N2CCN(S(=O)(=O)c3ccc(-c4ccsc4CN4CCN(CCO)CC4)cc3)CC2)nc1 [Compound 152]
7.169 | 75.8 to 454 (≈ 32.5 to 195 µg/mL) | 1.12 | O=C(NO)c1cnc(N2CCN(S(=O)(=O)c3ccc(-c4ccc[nH]4)cc3)CC2)nc1 [Compound 137]
7.176 | 75.8 to 454 (≈ 35.3 to 212 µg/mL) | 0.258 | O=C(NO)c1cnc(N2CCN(S(=O)(=O)c3ccc(/C=C/c4ccccc4)cc3)CC2)nc1 [Compound 109]
8.566 | > 454 | 0.0644 | CN(C)CCc1cccc(-c2ccc(S(=O)(=O)N3CCN(c4ncc(C(=O)NO)cn4)CC3)cc2)c1 [Compound 172]
7.49 | > 454 | 0.335 | COc1ccc(S(=O)(=O)N2CCN(c3ncc(C(=O)NO)cn3)CC2)cc1OC [Compound 96]
7.631 | > 454 | 0.287 | CN(C)c1cccc(-c2ccc(S(=O)(=O)N3CCN(c4ncc(C(=O)NO)cn4)CC3)cc2)c1 [Compound 135]
6.539 | 75.8 to 454 (≈ 39.3 to 236 µg/mL) | 0.558 | CN(c1ccccc1)c1ccc2cc(S(=O)(=O)N3CCN(c4ncc(C(=O)NO)cn4)CC3)ccc2c1 [Compound 186]
6.159 | 75.8 to 454 (≈ 41.4 to 248 µg/mL) | 0.752 | O=C(NO)c1cnc(N2CCN(S(=O)(=O)c3ccc(-c4cccc5c4sc4ccccc45)cc3)CC2)nc1 [Compound 130]
7.586 | 75.8 to 454 (≈ 35.6 to 213 µg/mL) | 0.149 | COc1ccccc1-c1ccc(S(=O)(=O)N2CCN(c3ncc(C(=O)NO)cn3)CC2)cc1 [Compound 103]
7.098 | > 454 | 0.119 | CN(C)c1ccc2cc(S(=O)(=O)N3CCN(c4ncc(C(=O)NO)cn4)CC3)ccc2c1 [Compound 181]
7.146 | 75.8 to 454 (≈ 34.4 to 206 µg/mL) | 0.119 | Cc1ccc(-c2ccc(S(=O)(=O)N3CCN(c4ncc(C(=O)NO)cn4)CC3)cc2)cc1 [Compound 179]
7.363 | > 454 | 1.1 | O=C(NO)c1cnc(N2CCN(S(=O)(=O)c3c(Cl)nc4sccn34)CC2)nc1 [Compound 95]
